What all share (format): biochemical
For experiment [1], the target named is T1, FAAH (Homo sapiens (Human), UniProt O00519). Description: Assay Method 1: FAAH assay, T84 cell homogenate, 3H-anandamide hydrolysis. The conditions noted are these: 3H-AEA tracer 200 nM, 1 h at rt. The gist of the method:
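Homogenate of human T84 cells in pH 9 Tris/EDTA buffer with 0.02% Triton X-100 was incubated with compound and 200 nM final 3H-anandamide for 1 h at rt. Released [3H]ethanolamine was separated from substrate through activated charcoal by centrifugation and quantified by scintillation counting.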

The next experiment concerns the target rat FAAH (Rattus norvegicus (Rat), UniProt P97612). Description: Assay Method 3: FAAH assay, cells transfected with rat FAAH. The following applies: T84 or rat FAAH-transfected SK-N-MC cell homogenate, 3H-AEA tracer 80 nM, 1 h at rt. How it is done:
Assay Method 3 A. Transfection of Cells with Rat FAAH
(§1) A 10-cm tissue culture dish with a confluent monolayer of SK-N-MC cells was split 2 days (d) prior to transfection. Using sterile technique, the media was removed and the cells were detached from the dish by the addition of trypsin. One fifth of the cells were then placed onto a new 10-cm dish. Cells were grown in a 37° C. incubator with 5% CO2 in Minimal Essential Media Eagle with 10% Fetal Bovine Serum. After 2 d, cells were approximately 80% confluent. These cells were removed from the dish with trypsin and pelleted in a clinical centrifuge. The pellet was re-suspended in 400 μL complete media and transferred to an electroporation cuvette with a 0.4 cm gap between the electrodes. Supercoiled rat FAAH cDNA (1 μg) was added to the cells and mixed. The voltage for the electroporation was set at 0.25 kV, and the capacitance was set at 960 μF. After electroporation, the cells were diluted into complete media (10 mL) and plated onto four 10-cm dishes. Because of the variability in the efficiency of electroporation, four different concentrations of cells were plated. The ratios used were 1:20, 1:10, and 1:5, with the remainder of the cells being added to the fourth dish. The cells were allowed to recover for 24 h before adding the selection media (complete media with 600 μg/mL G418). After 10 d, dishes were analyzed for surviving colonies of cells. Dishes with well-isolated colonies were used. Cells from individual colonies were isolated and tested.
(§2) T84 frozen cell pellets or transfected SK-N-MC cells (contents of 1×15 cm culture dishes) were homogenized in 50 mL of FAAH assay buffer (125 mM Tris, 1 mM EDTA, 0.2% Glycerol, 0.02% Triton X-100, 0.4 mM Hepes, pH 9). The assay mixture consisted of 50 μL of the cell homogenate, 10 μL of the test compound, and 40 μL of anandamide [1-^3H-ethanolamine] (^3H-AEA, Perkin-Elmer, 10.3 Ci/mmol), which was added last, for a final tracer concentration of 80 nM. The reaction mixture was incubated at rt for 1 h. During the incubation, 96-well Multiscreen filter plates (catalog number MAFCNOB50; Millipore, Bedford, Mass., USA) were loaded with 25 μL of activated charcoal (Multiscreen column loader, catalog number MACL09625, Millipore) and washed once with 100 μL of MeOH. Also during the incubation, 96-well DYNEX MicroLite plates (catalog number NL510410) were loaded with 100 μL of MicroScint40 (catalog number 6013641, Packard Bioscience, Meriden, Conn., USA). After the 1 h incubation, 60 μL of the reaction mixture were transferred to the charcoal plates, which were then assembled on top of the DYNEX plates using Centrifuge Alignment Frames (catalog number MACF09604, Millipore). The unbound labeled ethanolamine was centrifuged through to the bottom plate (5 min at 2000 rpm), which was preloaded with the scintillant, as described above. The plates were sealed and left at rt for 1 h before counting on a Hewlett Packard TopCount.

Experiment [2] addresses T1, FAAH. The experiment can be described thus: Assay Method 2: FAAH assay, cells transfected with human FAAH. The following applies: T84 or human FAAH-transfected SK-N-MC cell homogenate, 3H-AEA tracer 80 nM, 1 h at rt. How it is done: Assay Method 2 A. Transfection of Cells with Human FAAH
as §1, with “Supercoiled human” for “Supercoiled rat”, “([…])” for “(1 μg)”
as §2, with “[…]” for “40 μL”

Chain of rat FAAH (P97612 whole entry): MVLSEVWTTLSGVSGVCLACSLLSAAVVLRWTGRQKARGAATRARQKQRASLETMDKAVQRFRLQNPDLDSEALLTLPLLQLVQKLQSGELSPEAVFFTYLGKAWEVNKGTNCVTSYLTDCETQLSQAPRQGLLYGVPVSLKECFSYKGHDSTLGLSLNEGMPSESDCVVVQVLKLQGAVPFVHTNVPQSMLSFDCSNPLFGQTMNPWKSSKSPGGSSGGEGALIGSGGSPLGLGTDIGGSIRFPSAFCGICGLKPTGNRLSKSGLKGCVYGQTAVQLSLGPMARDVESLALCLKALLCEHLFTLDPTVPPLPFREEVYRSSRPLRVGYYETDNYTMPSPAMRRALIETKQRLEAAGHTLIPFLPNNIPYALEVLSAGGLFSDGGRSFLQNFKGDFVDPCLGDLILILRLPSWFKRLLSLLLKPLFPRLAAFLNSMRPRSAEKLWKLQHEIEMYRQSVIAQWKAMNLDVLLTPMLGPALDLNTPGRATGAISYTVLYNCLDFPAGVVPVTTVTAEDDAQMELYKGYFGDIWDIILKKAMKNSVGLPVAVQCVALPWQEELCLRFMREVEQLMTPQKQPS
T1 sequence (O00519 whole entry): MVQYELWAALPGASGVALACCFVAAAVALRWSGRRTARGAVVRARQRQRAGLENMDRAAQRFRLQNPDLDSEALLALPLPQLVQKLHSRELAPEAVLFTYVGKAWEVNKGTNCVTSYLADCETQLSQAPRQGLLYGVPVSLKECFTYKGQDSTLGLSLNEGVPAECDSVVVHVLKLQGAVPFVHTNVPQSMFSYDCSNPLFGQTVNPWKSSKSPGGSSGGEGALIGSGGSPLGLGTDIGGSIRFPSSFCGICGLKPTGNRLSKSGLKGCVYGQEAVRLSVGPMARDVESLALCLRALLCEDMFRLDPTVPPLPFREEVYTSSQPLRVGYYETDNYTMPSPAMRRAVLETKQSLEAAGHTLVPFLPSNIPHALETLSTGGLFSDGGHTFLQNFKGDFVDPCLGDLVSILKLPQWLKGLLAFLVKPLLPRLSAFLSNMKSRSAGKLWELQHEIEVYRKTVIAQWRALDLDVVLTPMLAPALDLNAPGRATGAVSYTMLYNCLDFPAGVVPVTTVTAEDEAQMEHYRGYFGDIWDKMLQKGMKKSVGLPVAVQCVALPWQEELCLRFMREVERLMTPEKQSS

As a reminder, the IC50 is the midpoint of a concentration-inhibition curve. Read a low IC50 as greater potency in that assay. As for `O=C(Nc1ccccc1)N1CCN(Cc2ccc3ccccc3c2)CC1` [Example 18, 4-Naphthalen-2-ylmethyl-piperazine-1-carboxylic acid phenylamide], the IC50 at FAAH [1] worked out at 0.017 µM; against rat FAAH, 0.265 µM; against FAAH [2], 0.023 µM.
For `O=C(Nc1ccccc1)N1CCN(Cc2ccc(Br)c(Br)c2)CC1` [Example 21, 4-(3,4-Dibromo-benzyl)-piperazine-1-carboxylic acid phenylamide] the same measures were 0.031 µM, 0.18 µM and 0.019 µM.
Consider `CC(C)c1ccc(CN2CCN(C(=O)Nc3ccccc3)CC2)cc1` [Example 32, 4-(4-Isopropyl-benzyl)-piperazine-1-carboxylic acid phenylamide], for which the figures for the IC50 on FAAH [1], at rat FAAH and against FAAH [2] were 0.22 µM, 10 µM and 0.38 µM, respectively.
For `O=C(Nc1ccccc1)N1CCN(Cc2cc(Br)ccc2O)CC1` [Example 34, 4-(5-Bromo-2-hydroxy-benzyl)-piperazine-1-carboxylic acid phenylamide] the same measures were 0.29 µM, 0.41 µM and 0.33 µM.
Taken in the same sequence, the figures for `O=C(Nc1ccccc1)N1CCN(Cc2ccccc2O)CC1` [Example 41, 4-(2-Hydroxy-benzyl)-piperazine-1-carboxylic acid phenylamide] were 1.3 µM, 10 µM and 3 µM.
Taken in the same sequence, the figures for `O=C(Nc1ccccc1)N1CCN(Cc2ccc3c(c2)OC(F)(F)O3)CC1` [Example 52, 4-(2,2-Difluoro-benzo[1,3]dioxol-5-ylmethyl)-piperazine-1-carboxylic acid phenylamide] were 0.087 µM, 0.29 µM and 0.1 µM.
Consider `O=C(Nc1ccccc1)N1CCN(Cc2ccc3ccccc3c2O)CC1` [Example 59, 4-(1-Hydroxy-naphthalen-2-ylmethyl)-piperazine-1-carboxylic acid phenylamide], for which the IC50 stood at 0.021 µM at FAAH [1], 0.05 µM on rat FAAH and 0.016 µM against FAAH [2].
Taken in the same sequence, the figures for `O=C(Nc1ccc(F)cc1)N1CCN(Cc2cnc3ccccc3c2)CC1` [Example 98, 4-Quinolin-3-ylmethyl-piperazine-1-carboxylic acid (4-fluoro-phenyl)-amide] were 0.13 µM, 6.5 µM and 0.22 µM.
For `O=C(Nc1ccncc1)N1CCN(Cc2ccc3c(c2)OCO3)CC1` [Example 147, 4-Benzo[1,3]dioxol-5-ylmethyl-piperazine-1-carboxylic acid pyridin-4-ylamide], the values for the IC50 against rat FAAH and against FAAH [2] were 10 µM and 3 µM, respectively.
Taken in the same sequence, the figures for `O=C(Nc1ncccn1)N1CCN(Cc2ccc3c(c2)OCO3)CC1` [Example 148, 4-Benzo[1,3]dioxol-5-ylmethyl-piperazine-1-carboxylic acid pyrimidin-2-ylamide] were 10 µM and greater than 10 µM.
Taken in the same sequence, the figures for `O=C(Nc1ccccn1)N1CCN(Cc2ccc3c(c2)OCO3)CC1` [Example 149, 4-Benzo[1,3]dioxol-5-ylmethyl-piperazine-1-carboxylic acid pyridin-2-ylamide] were 10 µM and 4 µM.
Taken in the same sequence, the figures for `O=C(Nc1ccncc1)N1CCN(Cc2ccc3c(c2)OC(F)(F)O3)CC1` [Example 151, 4-(2,2-Difluoro-benzo[1,3]dioxol-5-ylmethyl)-piperazine-1-carboxylic acid pyridin-4-ylamide] were 2 µM and 1.7 µM.
For `O=C(Nc1ccncn1)N1CCN(Cc2cnc3ccccc3c2)CC1` [Example 152, 4-Quinolin-3-ylmethyl-piperazine-1-carboxylic acid pyrimidin-4-ylamide], the IC50 on rat FAAH turned out to be 10 µM; on FAAH [2], 4 µM.
Taken in the same sequence, the figures for `O=C(Nc1ccncn1)N1CCN(Cc2ccc3c(c2)OC(F)(F)O3)CC1` [Example 153, 4-(2,2-Difluoro-benzo[1,3]dioxol-5-ylmethyl)-piperazine-1-carboxylic acid pyrimidin-4-ylamide] were 60 µM and 1 µM.
Taken in the same sequence, the figures for `O=C(Nc1ccncn1)N1CCN(Cc2ccc(Br)c(Br)c2)CC1` [Example 154, 4-(3,4-Dibromo-benzyl)-piperazine-1-carboxylic acid pyrimidin-4-ylamide] were 2 µM and 0.282 µM.
Taken in the same sequence, the figures for `O=C(O)c1ccc(NC(=O)N2CCN(Cc3cnc4ccccc4c3)CC2)cc1` [Example 155, 4-[(4-Quinolin-3-ylmethyl-piperazine-1-carbonyl)-amino]-benzoic acid] were 10 µM and 8 µM.
As for `O=C(Nc1ccccc1)N1CCN(Cc2cnc3ccccc3n2)CC1` [Example 156, 4-Quinoxalin-2-ylmethyl-piperazine-1-carboxylic acid phenylamide], the IC50 on rat FAAH was found to be 8 µM; at FAAH [2], 0.84 µM.
For `O=C(Nc1ccccc1)N1CCN(Cc2ccc(Cl)c(Cl)c2)CC1` [Example 157, 4-(3,4-Dichloro-benzyl)-piperazine-1-carboxylic acid phenylamide] the same measures were 0.35 µM and 0.065 µM.
For `O=C(Nc1nccs1)N1CCN(Cc2cnc3ccccc3c2)CC1` [Example 158, 4-Quinolin-3-ylmethyl-piperazine-1-carboxylic acid thiazol-2-ylamide] the same measures were 10 µM and greater than 10 µM.
As for `CN(C(=O)N1CCN(Cc2ccc(Br)c(Br)c2)CC1)c1ccccc1` [Example 160, 4-(3,4-Dibromo-benzyl)-piperazine-1-carboxylic acid methyl-phenyl-amide], the IC50 against rat FAAH was 10 µM; on FAAH [2], greater than 10 µM.

(Values after patent US9169224B2, “Piperazinyl and piperidinyl ureas as modulators of fatty acid amide hydrolase” (Janssen Pharmaceutica NV, priority 2004, dated 2015).)
